Source: US20250041310A1, “Combination Therapy Comprising A2A/A2B and PD-1/PD-L1 Inhibitors” (Incyte Corporation, priority 2020, published 2025)
Where two headings read alike, the source gives them in different places.

Tests used:
[1] = biological target: human adenosine A2B receptor (Homo sapiens (Human), UniProt P29275); assay: Adenosine A2B Receptor cyclic AMP GS Assay; format: cell-based
Procedure: Stably transfected HEK-293 cells expressing the human adenosine A2B receptor (Perkin Elmer) were maintained in MEM culture medium with 10% FBS and 100 μg/ml Geneticin (Life Technologies). 18 to 24 hours prior to assay, geneticin was removed from culture. The cisbio cAMP-GS Dynamic kit utilizing the FRET (Fluorescence Resonance Energy Transfer) technology was used to measure cAMP accumulation in the cells. Compounds of the present disclosure at an appropriate concentration were mixed with 10000 cells/well in white 96 well half area plates (Perkin Elmer) for 30 min at RT gently shaking. […] Detection reagents, d2-labeled cAMP (acceptor) and anti-cAMP cryptate (donor) were added to each well for 60 min at RT gently shaking.

[2] = biological target: Adenosine A2A Receptor (Homo sapiens (Human), UniProt P29274); assay: A2A Tag-lite HTRF Assay; format: binding; conditions: Tag-lite A2A labeled cells, fluorescent ligand 12.5 nM; read-out: A2A_Ki
Chain of Adenosine A2A Receptor (P29274 whole entry): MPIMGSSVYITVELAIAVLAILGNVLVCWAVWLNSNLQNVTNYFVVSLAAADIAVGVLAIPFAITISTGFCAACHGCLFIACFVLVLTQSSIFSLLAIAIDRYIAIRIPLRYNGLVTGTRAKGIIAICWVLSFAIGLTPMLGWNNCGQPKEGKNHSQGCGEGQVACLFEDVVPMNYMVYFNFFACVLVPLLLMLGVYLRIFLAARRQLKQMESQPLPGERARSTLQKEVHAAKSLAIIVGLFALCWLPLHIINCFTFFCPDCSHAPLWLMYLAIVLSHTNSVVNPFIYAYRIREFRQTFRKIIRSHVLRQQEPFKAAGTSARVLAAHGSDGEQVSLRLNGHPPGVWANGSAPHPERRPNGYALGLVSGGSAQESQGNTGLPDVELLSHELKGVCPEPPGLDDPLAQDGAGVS
Procedure: Test compounds were first serially diluted in DMSO and 100 nl added to the plate wells before the addition of other reaction components. The final concentration of DMSO was 1%. Tag-lite® Adenosine A2A labeled cells (CisBio C1TT1A2A) were diluted 1:5 into Tag-lite buffer (CisBio LABMED) and spun 1200 g for 5 mins.

[3] = system: PBMC from healthy donors stimulated by CD3 antibody; assay: In vitro Mixed Lineage Reaction assay (MLR); format: cell-based; conditions: for effect of combination with atezolizumab: PBMC stimulated with CD3 antibody, FIGS. 2A-2D; for IFNγ production: combined with anti-PD-L1 antibody atezolizumab, 1 μM NECA, CD3 antibody, 4 days
Procedure: On day 0, 10,000 PBMCs from a healthy donor was co-cultured with 10,000 γ-radiated PBMCs from another healthy donor. […] Cells were incubated at 37° C. for 4 days. IFN-γ in the supernatant of each well was measured by a HTRF kit (Cisbio, 62[…]) and the fluorescent signal was detected on a Pherastar FS plate reader (BMG Labtech) on day 4.

[4] = system: CT-26 murine colon carcinoma hosted in NSG mice; assay: In vivo efficacy study, CT-26 NSG xenograft model; design: species or system mouse; conditions: 10 mg/kg BID, CT-26 in NSG mice lacking T and NK cells
[5] = system: primary T cells co-cultured with CHO-PD-L1 cells; conditions: 2 μM NECA
Procedure: In vitro the CHO-PD-L1 co-culture assay, T cells were treated in the presence of 20 CHO-PD-L1 cells with PD-1 antibody, and using 5′-N-ethylcarboxamide adenosine (NECA), an adenosine-mimicking reagent, to activate adenosine signaling.
Day 0, plate 10,000 CHO PDL1+ cells in Plate 96 Tissue Culture Flat Bottom plate in 100 ul of CHO Media without antibiotics. On day 1, T Cells were thawed and resuspended in T cell media at 1×10^6 cells/ml. Media was removed from the CHO PDL1+ cells plates and 130 ul of T cell media was added. T cell media at 198 ul was added onto the compound plates at 2 ul, or −1:100 dilution and then re-suspended. 20 ul of compounds from the compound plates were added onto the CHO cell plates at a final dilution of compounds at 1:1000. 50 ul of T cells (50,000 cells) were added onto the plates with CHO cells to make a total of 200 ul volume and incubation was carried out at 37° C. for 72 hrs. After 3 days in culture, the supernatant was collected for an hIFNg and hIL2 cytokine assay run using ProCartaplex 2 plex kits (Life Technologies Cat #PPX-02) for hIFNg and hIL2 (Manufacturer's Protocol). The cytokine assay using ProCartaplex kits are run on a Flex Map 3D Luminex multiplexing platform.

[6] = system: B16 melanoma; assay: In vivo efficacy study, B16 syngeneic melanoma model; design: species or system mouse; conditions: Compound 9 10 mg/kg BID combined with anti-PD-L1
[7] = HEK-293 cells, agonist NECA 12 nM, read-out: A2B_cAMP_EC50

Chain of human adenosine A2B receptor (P29275 whole entry): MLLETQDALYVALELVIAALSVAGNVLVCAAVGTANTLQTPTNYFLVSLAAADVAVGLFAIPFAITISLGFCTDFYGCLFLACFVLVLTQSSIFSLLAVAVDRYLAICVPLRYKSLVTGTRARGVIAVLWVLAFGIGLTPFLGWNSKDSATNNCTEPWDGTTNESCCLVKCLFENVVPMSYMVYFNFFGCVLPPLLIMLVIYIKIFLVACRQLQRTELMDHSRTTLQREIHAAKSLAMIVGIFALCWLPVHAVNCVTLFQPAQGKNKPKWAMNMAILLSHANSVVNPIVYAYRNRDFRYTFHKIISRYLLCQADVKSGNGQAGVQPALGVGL

Row | Ki [2] [nM] | EC50 [1, 7] [nM] | Structure (SMILES) | also measured
1 | < 10 |  | N#Cc1cccc(-c2nc(N)n3nc(Cc4ccccn4)nc3c2-c2ccncn2)c1 [Compound 1, 3-(5-Amino-2-(pyridin-2-ylmethyl)-8-(pyrimidin-4-yl)-[1,2,4]triazolo[1,5-c]pyrimidin-7-yl)benzonitrile] | 
2 | < 10 | < 10 | N#Cc1cccc(-c2nc(N)n3nc(C(O)c4c(F)cccc4F)nc3c2-c2ccncn2)c1 (stereo not drawn) [Compound 2, 3-(5-Amino-2-((2,6-difluorophenyl)(hydroxy)methyl)-8-(pyrimidin-4-yl)-[1,2,4]triazolo[1,5-c]pyrimidin-7-yl)benzonitrile] | 
3 |  |  | N#Cc1cccc(-c2nc(N)n3nc(Cn4nnc(-c5ccccn5)n4)nc3c2-c2ccncn2)c1 [Compound 3A, 3-(5-amino-2-((5-(pyridin-2-yl)-2H-tetrazol-2-yl)methyl)-8-(pyrimidin-4-yl)-[1,2,4]triazolo[1,5-c]pyrimidin-7-yl)benzonitrile] | effect of combination with atezolizumab [3]: synergistic effect; IFNγ production [3]: increase IFNγ production significantly
4 | < 10 |  | Cc1cccnc1COc1nc2c(-c3ccncn3)c(-c3cccc(C#N)c3)nc(N)n2n1 [Compound 4, 3-(5-Amino-2-((3-methylpyridin-2-yl)methoxy)-8-(pyrimidin-4-yl)-[1,2,4]triazolo[1,5-c]pyrimidin-7-yl)benzonitrile] | 
5 | < 10 |  | N#Cc1cccc(-c2cc3nc(C(O)c4ccccc4)nn3c(N)n2)c1 (stereo not drawn) [Compound 5, 3-(5-Amino-2-(hydroxy(phenyl)methyl)-[1,2,4]triazolo[1,5-c]pyrimidin-7-yl)benzonitrile] | 
6 | < 10 |  | N#Cc1cccc(-c2cc3nc(C(O)c4c(F)cccc4F)nn3c(N)n2)c1F (stereo not drawn) [Compound 6, 3-(5-Amino-2-((2,6-difluorophenyl)(hydroxy)methyl)-[1,2,4]triazolo[1,5-c]pyrimidin-7-yl)-2-fluorobenzonitrile] | 
7 | < 10 |  | N#Cc1cccc(-c2nc(N)n3nc(C(O)c4c(F)cccc4F)nc3c2C#N)c1F (stereo not drawn) [Compound 7, 5-Amino-7-(3-cyano-2-fluorophenyl)-2-((2,6-difluorophenyl)(hydroxy)methyl)-[1,2,4]triazolo[1,5-c]pyrimidine-8-carbonitrile] | 
8 | < 10 |  | CN1CCC(NCc2cccc(F)c2C(O)c2nc3cc(-c4cccc(C#N)c4F)nc(N)n3n2)C1=O (stereo not drawn) [Compound 8, 3-(5-Amino-2-((2-fluoro-6-(((1-methyl-2-oxopyrrolidin-3-yl)amino)methyl)phenyl)(hydroxy)methyl)-[1,2,4]triazolo[1,5-c]pyrimidin-7-yl)-2-fluorobenzonitrile] | 
9 | < 10 | < 10 | N#Cc1cccc(-c2nc(N)c3nn(Cc4ccccn4)nc3c2-c2ccncn2)c1 [Compound 13, 3-(4-amino-2-(pyridin-2-ylmethyl)-7-(pyrimidin-4-yl)-2H-[1,2,3]triazolo[4,5-c]pyridin-6-yl)benzonitrile] | 
10 | < 10 | < 10 | N#Cc1cccc(-c2nc(N)c3nn(Cc4ncccc4F)nc3c2-c2ccncn2)c1 [Compound 14, 3-(4-amino-2-((3-fluoropyridin-2-yl)methyl)-7-(pyrimidin-4-yl)-2H-[1,2,3]triazolo[4,5-c]pyridin-6-yl)benzonitrile] | 
11 | < 10 | < 10 | N#Cc1cccc(-c2nc(N)c3nn(Cc4ncccc4F)nc3c2-c2ccncc2)c1 [Compound 15, 3-(4-amino-2-((3-fluoropyridin-2-yl)methyl)-7-(pyridin-4-yl)-2H-[1,2,3]triazolo[4,5-c]pyridin-6-yl)benzonitrile] | 
12 | < 10 | < 10 | Cn1nccc1-c1c(-c2cccc(C#N)c2F)nc(N)c2nn(Cc3ccccn3)nc12 [Compound 16, 3-(4-amino-7-(1-methyl-1H-pyrazol-5-yl)-2-(pyridin-2-ylmethyl)-2H-[1,2,3]triazolo[4,5-c]pyridin-6-yl)-2-fluorobenzonitrile] | 
13 | < 10 |  | CCCCCn1c2cc(-c3cnn(Cc4cncc(Cl)c4)c3)[nH]c2c(=O)n2c(C)nnc12 [Compound 17, 7-(1-((5-Chloropyridin-3-yl)methyl)-1H-pyrazol-4-yl)-3-methyl-9-pentyl-6,9-dihydro-5H-pyrrolo[3,2-d][1,2,4]triazolo[4,3-a]pyrimidin-5-one] | 
14 | < 10 |  | CCCCCn1c2cc(-c3cnn(Cc4cncc(C)c4)c3)[nH]c2c(=O)n2c(C)nnc12 [Compound 18, 3-Methyl-7-(1-((5-methylpyridin-3-yl)methyl)-1H-pyrazol-4-yl)-9-pentyl-6,9-dihydro-5H-pyrrolo[3,2-d][1,2,4]triazolo[4,3-a]pyrimidin-5-one] | 
15 | < 10 |  | CCCCCn1c2cc(-c3cnn(Cc4cnc5ccsc5c4)c3)[nH]c2c(=O)n2c(C)nnc12 [Compound 19, 3-Methyl-9-pentyl-7-(1-(thieno[3,2-b]pyridin-6-ylmethyl)-1H-pyrazol-4-yl)-6,9-dihydro-5H-pyrrolo[3,2-d][1,2,4]triazolo[4,3-a]pyrimidin-5-one] | 
16 | < 10 |  | CCCCCn1c2cc(-c3cnn(Cc4ccc5c(c4)CCN(C(=O)CN(C)C)C5)c3)[nH]c2c(=O)n2c(C)nnc12 [Compound 20, 7-(1-((2-(2-(Dimethylamino)acetyl)-1,2,3,4-tetrahydroisoquinolin-6-yl)methyl)-1H-pyrazol-4-yl)-3-methyl-9-pentyl-6,9-dihydro-5H-pyrrolo[3,2-d][1,2,4]triazolo[4,3-a]pyrimidin-5-one] | 

Row | Structure (SMILES) | Ki [2] [nM] | EC50 [1, 7] [nM] | also measured
17 | N#Cc1cccc(-c2nc(N)c3nc(C(O)c4c(F)cccc4F)nn3c2-c2ccncn2)c1 (single isomer, unassigned) [Compound 10, 3-(8-Amino-2-((2,6-difluorophenyl)(hydroxy)methyl)-5-(pyrimidin-4-yl)-[1,2,4]triazolo[1,5-a]pyrazin-6-yl)benzonitrile] | < 10 |  | EC50 [1]: < 10 nM
18 | Cc1cc(-c2c(-c3cccc(C#N)c3)nc(N)c3nc(C(O)c4c(F)cccc4F)nn23)cc(C)n1 (single isomer, unassigned) [Compound 12, 3-(8-amino-2-((2,6-difluorophenyl)(hydroxy)methyl)-5-(2,6-dimethylpyridin-4-yl)-[1,2,4]triazolo[1,5-a]pyrazin-6-yl)benzonitrile] | < 10 |  | EC50 [1]: 10 to 100 nM
19 | N#Cc1cccc(-c2nc(N)n3nc(Cn4nnc(-c5ccccn5)n4)nc3c2-c2ccncn2)c1 [Compound 3] | < 10 | < 10 | 
20 | Cn1nc(-c2c(-c3cccc(C#N)c3)nc(N)c3nc(Cc4ccccn4)nn23)ccc1=O [Compound 9, 3-(8-Amino-5-(1-methyl-6-oxo-1,6-dihydropyridazin-3-yl)-2-(pyridin-2-ylmethyl)-[1,2,4]triazolo[1,5-a]pyrazin-6-yl)benzonitrile] | < 10 |  | single agent efficacy [4]: no single agent efficacy; effect of combination with pembrolizumab ([5]; FIG. 1A): synergistic effect; effect of combination with Antibody X ([5]; FIG. 1B): synergistic effect; effect of combination with Compound Y ([5]; FIG. 1C): synergistic effect; effect of combination with atezolizumab [3]: synergistic effect; IFNγ production [3]: increase IFNγ production significantly; tumor growth inhibition [6]: 54%
21 | Cc1ncoc1-c1c(-c2cccc(C#N)c2)nc(N)c2nc(C(N)c3c(F)cccc3F)nn12 (stereo not drawn) [Compound 11, 3-(8-amino-2-(amino(2,6-difluorophenyl)methyl)-5-(4-methyloxazol-5-yl)-[1,2,4]triazolo[1,5-a]pyrazin-6-yl)benzonitrile] | < 10 |  | 
22 | N#Cc1cccc(-c2nc(N)n3nc(Cn4nnc(-n5cccn5)n4)nc3c2-c2ccncn2)c1 [Compound 21] | < 10 | < 10 | 
